In PubChem BioAssay (NCI):
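GI50 is the concentration that inhibits growth by half. TGI: concentration producing complete growth inhibition.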

Columns and labels:
Assay in all cases: inhibition of tumour cell growth, NCI panel, 384-well format
A498 renal = test system: A498 renal
ACHN renal = test system: ACHN renal
BT-549 breast = test system: BT-549 breast
CAKI-1 renal = test system: CAKI-1 renal
CCRF-CEM leukemia = test system: CCRF-CEM leukemia
COLO 205 colon = test system: COLO 205 colon
DU-145 prostate = test system: DU-145 prostate
EKVX NSCLC = test system: EKVX NSCLC
HCC-2998 colon = test system: HCC-2998 colon
HCT-116 colon = test system: HCT-116 colon
HCT-15 colon = test system: HCT-15 colon
HL-60(TB) leukemia = test system: HL-60(TB) leukemia
HOP-62 NSCLC = test system: HOP-62 NSCLC
HS 578T breast = test system: HS 578T breast
HT29 colon = test system: HT29 colon
IGROV1 ovarian = test system: IGROV1 ovarian
K-562 leukemia = test system: K-562 leukemia
KM12 colon = test system: KM12 colon
LOX IMVI melanoma = test system: LOX IMVI melanoma
M14 melanoma = test system: M14 melanoma
MALME-3M melanoma = test system: MALME-3M melanoma
MDA-MB-231 breast = test system: MDA-MB-231 breast
MDA-MB-435 melanoma = test system: MDA-MB-435 melanoma
MDA-MB-468 breast = test system: MDA-MB-468 breast
MOLT-4 leukemia = test system: MOLT-4 leukemia
NCI-H226 lung = test system: NCI-H226 lung
NCI-H23 lung = test system: NCI-H23 lung
NCI-H322M lung = test system: NCI-H322M lung
NCI-H460 NSCLC = test system: NCI-H460 NSCLC
NCI-H522 lung = test system: NCI-H522 lung
OVCAR-5 ovarian = test system: OVCAR-5 ovarian
OVCAR-8 ovarian = test system: OVCAR-8 ovarian
PC-3 prostate = test system: PC-3 prostate
RPMI-8226 leukemia = test system: RPMI-8226 leukemia
RXF 393 renal = test system: RXF 393 renal
SF-295 CNS = test system: SF-295 CNS
SF-539 CNS = test system: SF-539 CNS
SK-MEL-2 melanoma = test system: SK-MEL-2 melanoma
SK-MEL-5 melanoma = test system: SK-MEL-5 melanoma
SK-OV-3 ovarian = test system: SK-OV-3 ovarian
SR leukemia = test system: SR leukemia
SW-620 colon = test system: SW-620 colon
T-47D breast = test system: T-47D breast
TK-10 renal = test system: TK-10 renal
UACC-257 melanoma = test system: UACC-257 melanoma
UACC-62 melanoma = test system: UACC-62 melanoma
UO-31 renal = test system: UO-31 renal

## Cc1nc(NC(=O)N2CCC[C@H]2C(N)=O)sc1-c1ccnc(C(C)(C)C(F)(F)F)c1
A498 renal
  GI50: 8.13 µM
  TGI: 37.7 µM
ACHN renal
  GI50: 9.43 µM
  TGI: 48.7 µM
BT-549 breast
  GI50: 5.81 µM
  TGI: 28.6 µM
CAKI-1 renal
  GI50: 7.1 µM
  TGI: 26.9 µM
CCRF-CEM leukemia
  GI50: 3.51 µM
  TGI: 15.6 µM
COLO 205 colon
  GI50: 7.15 µM
  TGI: 43.4 µM
DU-145 prostate
  GI50: 10.8 µM
  TGI: 33.7 µM
EKVX NSCLC
  GI50: 5.55 µM
  TGI: 24.8 µM
HCC-2998 colon
  GI50: 6.67 µM
  TGI: 25 µM
HCT-116 colon
  GI50: 7.62 µM
  TGI: 42.8 µM
HCT-15 colon
  GI50: 2.74 µM
  TGI: 27.8 µM
HL-60(TB) leukemia
  GI50: 0.727 µM
  TGI: 9.24 µM
HOP-62 NSCLC
  GI50: 18 µM
  TGI: > 94.3 µM
HS 578T breast
  GI50: 3.7 µM
  TGI: 18.4 µM
HT29 colon
  GI50: 1.58 µM
  TGI: 33.4 µM
IGROV1 ovarian
  GI50: 0.118 µM
  TGI: 1.34 µM
K-562 leukemia
  GI50: 15.6 µM
  TGI: 35.1 µM
KM12 colon
  GI50: 25.8 µM
  TGI: > 92.8 µM
LOX IMVI melanoma
  GI50: 7.55 µM
  TGI: 28 µM
M14 melanoma
  GI50: 15 µM
  TGI: > 74.2 µM
MALME-3M melanoma
  GI50: 6.66 µM
  TGI: 29.4 µM
MDA-MB-231 breast
  GI50: 13.5 µM
  TGI: 48.7 µM
MDA-MB-435 melanoma
  GI50: 24.6 µM
  TGI: > 80.3 µM
MDA-MB-468 breast
  GI50: 1.26 µM
  TGI: 7.64 µM
MOLT-4 leukemia
  GI50: 0.857 µM
  TGI: 4.24 µM
NCI-H226 lung
  GI50: 8.88 µM
  TGI: 32.5 µM
NCI-H23 lung
  GI50: 12.1 µM
  TGI: 44.4 µM
NCI-H322M lung
  GI50: 4.6 µM
  TGI: 26.6 µM
NCI-H460 NSCLC
  GI50: 2.13 µM
  TGI: 43 µM
NCI-H522 lung
  GI50: 4.78 µM
  TGI: 23.8 µM
OVCAR-5 ovarian
  GI50: 5.5 µM
  TGI: 37.4 µM
OVCAR-8 ovarian
  GI50: 14.3 µM
  TGI: 88.7 µM
PC-3 prostate
  GI50: 5.73 µM
  TGI: 25.4 µM
RPMI-8226 leukemia
  GI50: 7.05 µM
  TGI: 21.7 µM
RXF 393 renal
  GI50: 5.57 µM
  TGI: 22.5 µM
SF-295 CNS
  GI50: 9.16 µM
  TGI: 33.5 µM
SF-539 CNS
  GI50: 12.5 µM
  TGI: 38.3 µM
SK-MEL-2 melanoma
  GI50: 12.4 µM
  TGI: 26.2 µM
SK-MEL-5 melanoma
  GI50: 6.54 µM
  TGI: 14.9 µM
SK-OV-3 ovarian
  GI50: 0.725 µM
  TGI: 12.1 µM
SR leukemia
  GI50: 3.57 µM
  TGI: 15.6 µM
SW-620 colon
  GI50: 8.53 µM
  TGI: 40.2 µM
T-47D breast
  GI50: 0.0839 µM
  TGI: 0.592 µM
TK-10 renal
  GI50: 4.71 µM
  TGI: 28.5 µM
UACC-257 melanoma
  GI50: 23 µM
  TGI: 70.3 µM
UACC-62 melanoma
  GI50: 10.2 µM
  TGI: 24 µM
UO-31 renal
  GI50: 8.46 µM
  TGI: 58.5 µM

## CC(=O)N1CC(F)(F)c2c(Sc3ncc(N4CCC5(CC4)COC[C@H]5N)nc3N)cccc21
A498 renal
  GI50: 2.75 µM
  TGI: 20.8 µM
ACHN renal
  GI50: 6.61 µM
  TGI: 27.1 µM
BT-549 breast
  GI50: 4.68 µM
  TGI: 22.1 µM
CAKI-1 renal
  GI50: 2.74 µM
  TGI: 21.1 µM
CCRF-CEM leukemia
  GI50: 15.3 µM
  TGI: 28.6 µM
COLO 205 colon
  GI50: 16.6 µM
  TGI: 32 µM
DU-145 prostate
  GI50: 19.1 µM
  TGI: 63.1 µM
EKVX NSCLC
  GI50: 6.02 µM
  TGI: 43.1 µM
HCC-2998 colon
  GI50: 17.3 µM
  TGI: 32.1 µM
HCT-116 colon
  GI50: 16.2 µM
  TGI: 30 µM
HCT-15 colon
  GI50: 16.9 µM
  TGI: 31.8 µM
HL-60(TB) leukemia
  GI50: 10 µM
  TGI: 21.6 µM
HOP-62 NSCLC
  GI50: 13.7 µM
  TGI: 30.9 µM
HS 578T breast
  GI50: 13.9 µM
  TGI: 29.8 µM
HT29 colon
  GI50: 3.75 µM
  TGI: 12.7 µM
IGROV1 ovarian
  GI50: 6.38 µM
  TGI: 24.5 µM
K-562 leukemia
  GI50: 0.774 µM
  TGI: 13.9 µM
KM12 colon
  GI50: 2.97 µM
  TGI: 13.5 µM
LOX IMVI melanoma
  GI50: 12.4 µM
  TGI: 25 µM
M14 melanoma
  GI50: 10.4 µM
  TGI: 22.4 µM
MALME-3M melanoma
  GI50: 8.55 µM
  TGI: 20.8 µM
MDA-MB-231 breast
  GI50: 15.3 µM
  TGI: 41.4 µM
MDA-MB-435 melanoma
  GI50: 29.1 µM
  TGI: 91.7 µM
MDA-MB-468 breast
  GI50: 1.52 µM
  TGI: 8.19 µM
MOLT-4 leukemia
  GI50: 14.1 µM
  TGI: 27.2 µM
NCI-H226 lung
  GI50: 2.48 µM
  TGI: 41.9 µM
NCI-H23 lung
  GI50: 2.06 µM
  TGI: 15.2 µM
NCI-H322M lung
  GI50: 2.08 µM
  TGI: 27.7 µM
NCI-H460 NSCLC
  GI50: 18.6 µM
  TGI: 34.6 µM
NCI-H522 lung
  GI50: 1.56 µM
  TGI: 14.5 µM
OVCAR-5 ovarian
  GI50: 18.1 µM
  TGI: 57.3 µM
OVCAR-8 ovarian
  GI50: 11.9 µM
  TGI: 30.8 µM
PC-3 prostate
  GI50: 13.4 µM
  TGI: 48.6 µM
RPMI-8226 leukemia
  GI50: 3.87 µM
  TGI: 15.5 µM
RXF 393 renal
  GI50: 2.22 µM
  TGI: 8.72 µM
SF-295 CNS
  GI50: 15.5 µM
  TGI: 31.2 µM
SF-539 CNS
  GI50: 8.31 µM
  TGI: 21.1 µM
SK-MEL-2 melanoma
  GI50: 16.2 µM
  TGI: 30.3 µM
SK-MEL-5 melanoma
  GI50: 15.7 µM
  TGI: 29.2 µM
SK-OV-3 ovarian
  GI50: 4.82 µM
  TGI: 19.1 µM
SR leukemia
  GI50: 2.35 µM
  TGI: 6.03 µM
SW-620 colon
  GI50: 11.5 µM
  TGI: 23.9 µM
T-47D breast
  GI50: 11.5 µM
  TGI: 26.3 µM
TK-10 renal
  GI50: 4.9 µM
  TGI: 19.2 µM
UACC-257 melanoma
  GI50: 14.4 µM
  TGI: 27.6 µM
UACC-62 melanoma
  GI50: 12.5 µM
  TGI: 25.6 µM
UO-31 renal
  GI50: 6.39 µM
  TGI: 20.3 µM
